From article PMC4318582, “Chemotherapy of Second Stage Human African Trypanosomiasis: Comparison between the Parenteral Diamidine DB829 and Its Oral Prodrug DB868 in Vervet Monkeys” (PLoS Neglected Tropical Diseases, 2015)
Values joined by “and” are separate entries in the source; they are usually repeats but may differ in a detail not shown here. Equal values may be shown once. Read-outs that look alike come from different tables or passages of the source.

Test: Plasma pharmacokinetics in infected vervet monkeys (HPLC-MS/MS)
Assay type: in vivo, vervet monkey
Conditions: for AUClast: last measurable concentration varied (112–490 days); for CL/F: read-out: Cl/F (apparent clearance) (converted)
Excerpt: Parasitaemia post-infection was monitored daily, using ear-prick capillary blood, through the completion of DB868 and DB829 treatment. Following the last drug dose (LDD), blood and CSF samples were examined for trypanosomes at 1, 4, 7, and 14 days to determine the end of treatment (EoT) response; monkeys which were positive for trypanosomes in either blood or CSF at the end of this 14-day period were classified as treatment failures/not cured while those that were free of trypanosomes were classified as provisionally cured. After the 14-day EoT evaluations, parasitaemia examinations were continued twice weekly to ≥ 300 days post-LDD as described previously. Additionally, physical examinations and haematological assessments were carried out once weekly up to 28 days post-LDD, once every two weeks between 28 and 100 days post-LDD, and monthly thereafter until the end of the study as described previously. At 300 days post-LDD, monkeys were considered cured if they remained normal clinically and parasite-free in the blood and CSF. Pharmacokinetic outcomes were monitored for a minimum of 60 days post-LDD as described previously. To facilitate the collection of blood and CSF for these assessments, the monkeys were anaesthetised with an IM injection of ketamine HCl (10–15 mg/kg) and diazepam (0.5 mg/kg). Monkeys that relapsed, characterized by trypanosome recrudescence in the blood or CSF, were rescue-treated with melarsoprol. Melarsoprol (Mel B), supplied by the World Health Organization as a 3.6% (w/v) solution in propylene glycol, was administered intravenously at 3.6 mg/kg/day for 4 consecutive days.
Plasma samples were processed for quantification of DB868 and DB829 by high performance liquid chromatography-tandem mass spectrometry (HPLC-MS/MS) as described previously. CSF samples were processed in a manner similar to that of plasma samples.
Clinical and haematological data were analysed using Statview for Windows Version 5.0.1 (1995–1998; SAS Institute Inc., Cary, NC, USA). Repeated measures ANOVA, with Fisher’s PLSD post hoc test, was used to test the effect of trypanosome infection on haematologic parameters in comparison with respective baseline values (α = 0.05). In addition, the effects of IM DB829 and oral DB868 on these haematologic parameters in monkeys with confirmed second stage HAT were tested. Pharmacokinetic outcomes were recovered using traditional non-compartmental methods using Phoenix WinNonlin (version 6.2; Pharsight, Mountain View, CA, USA).

[1] = after 5th IM dose, Group 3 = 2.5 mg/kg × 5 consecutive days, 2.5 mg/kg

## N=C(N)c1ccc(-c2ccc(-c3ccc(C(=N)N)cn3)o2)nc1 [DB829, 2,5-bis(5-amidino-2-pyridyl)furan]
After 5th IM dose, Group 1 = 5 mg/kg × 5 consecutive days, 5 mg/kg
  AUClast: 12000 nmol·days/L and 13000 nmol·days/L
After 5th IM dose, Group 2 = 5 mg/kg × 5 alternating days, 5 mg/kg
  t½ (terminal half-life): 180 days
[1]
  AUC0-∞: 8300 nmol·days/L and 5300 nmol·days/L
  Cl/F (apparent clearance): 0.694 mL/min/kg
  t½ (terminal half-life): 42 days
  AUClast: 7700 nmol·days/L and 4500 nmol·days/L
After oral DB868 10 mg/kg/day
  geometric mean AUC0–63 of DB829 relative to single monkey of 3 mg/kg/day group: approximately 3 fold
After oral DB868 20 mg/kg/day
  geometric mean AUC0–63 of DB829 relative to single monkey of 3 mg/kg/day group: ~4 fold
monkey, in vivo, im, 2.5 mg/kg, after 5th IM dose, Group 3 = 2.5 mg/kg × 5 consecutive days
  CL/F: 0.465 mL/min/kg
monkey, in vivo, im, 2.5 mg/kg, after 5th IM dose, Group 3 = 2.5 mg/kg × 5 consecutive days, read-out: t½ (terminal half-life) (converted)
  half-life: 33 days
monkey, in vivo, im, 2.5 mg/kg, plasma DB829 after 5th IM dose, Group 3 = 2.5 mg/kg × 5 consecutive days, read-out: Cmax
  Cmax: 4200 nM
monkey, in vivo, im, 2.5 mg/kg, plasma DB829 after 5th IM dose, Group 3 = 2.5 mg/kg × 5 consecutive days, read-out: Tmax (converted)
  Tmax: 0.04 days
monkey, in vivo, im, 5 mg/kg, after 5th IM dose, Group 1 = 5 mg/kg × 5 consecutive days
  CL/F: 0.59 mL/min/kg
monkey, in vivo, im, 5 mg/kg, after 5th IM dose, Group 1 = 5 mg/kg × 5 consecutive days, read-out: t½ (terminal half-life) (converted)
  half-life: 34 days
monkey, in vivo, im, 5 mg/kg, after 5th IM dose, Group 2 = 5 mg/kg × 5 alternating days, read-out: t½ (terminal half-life) (converted)
  half-life: 130 days
monkey, in vivo, im, 5 mg/kg, plasma DB829 after 5th IM dose, Group 1 = 5 mg/kg × 5 consecutive days, read-out: Cmax
  Cmax: 12000 nM
monkey, in vivo, im, 5 mg/kg, plasma DB829 after 5th IM dose, Group 1 = 5 mg/kg × 5 consecutive days, read-out: Tmax (converted)
  Tmax: 0.04 days
monkey, in vivo, im, 5 mg/kg, plasma DB829 after 5th IM dose, Group 2 = 5 mg/kg × 5 alternating days, read-out: Cmax
  Cmax: 16000 nM
monkey, in vivo, im, 5 mg/kg, plasma DB829 after 5th IM dose, Group 2 = 5 mg/kg × 5 alternating days, read-out: Tmax (converted)
  Tmax: 0.04 days
monkey, in vivo, im, IM DB829 consecutive-day dosing regimens, read-out: geometric mean (range) terminal half-life (t½) (converted)
  half-life: 38 days
monkey, in vivo, po, 3 mg/kg/day, after oral DB868 3 mg/kg/day, read-out: Geometric mean Cmax (range) of DB829
  Cmax: 85 nM
monkey, in vivo, po, 3 mg/kg/day, plasma DB829 after the 10th oral dose of DB868, 3 mg/kg × 10 days, read-out: Cmax
  Cmax: 60 nM
monkey, in vivo, po, 10 mg/kg/day, after oral DB868 10 mg/kg/day, read-out: Geometric mean Cmax (range) of DB829
  Cmax: 270 nM
monkey, in vivo, po, 10 mg/kg/day, plasma DB829 after the 10th oral dose of DB868, 10 mg/kg × 10 days, read-out: Cmax
  Cmax: 410 nM
monkey, in vivo, po, 10 mg/kg/day, plasma DB829 after the 10th oral dose of DB868, 10 mg/kg × 10 days, read-out: t½ (converted)
  half-life: 120 days
monkey, in vivo, po, 20 mg/kg/day, after oral DB868 20 mg/kg/day, read-out: Geometric mean Cmax (range) of DB829
  Cmax: 530 nM
monkey, in vivo, po, 20 mg/kg/day, plasma DB829 after the 10th oral dose of DB868, 20 mg/kg × 10 days, read-out: Cmax
  Cmax: 460 nM
monkey, in vivo, po, after oral DB868, three treatment groups, read-out: Median plasma Tmax for DB829 (converted)
  Tmax: 0.33 days
monkey, in vivo, po, after oral DB868, three treatment groups, read-out: range of plasma Tmax for DB829
  Tmax: 0.04 to 2 days
monkey, in vivo, po, given IM or orally as DB868, range over monkeys, read-out: half-life for DB829
  half-life: 33 to 180 days
Plasma DB829 after 5th IM dose, Group 1 = 5 mg/kg × 5 consecutive days, 5 mg/kg, read-out: Cmax
  Cmax: 15000 nM
Plasma DB829 after 5th IM dose, Group 2 = 5 mg/kg × 5 alternating days, 5 mg/kg, read-out: Cmax
  Cmax: 8900 nM
Plasma DB829 after 5th IM dose, Group 3 = 2.5 mg/kg × 5 consecutive days, 2.5 mg/kg, read-out: Cmax
  Cmax: 5900 nM
Plasma DB829 after the 10th oral dose of DB868, 3 mg/kg × 10 days
  Tmax: 0.33 days
Plasma DB829 after the 10th oral dose of DB868, 3 mg/kg × 10 days, 0 to 63 days
  AUC0–63: 1800 nmol·days/L
Plasma DB829 after the 10th oral dose of DB868, 3 mg/kg × 10 days, read-out: Cmax
  Cmax: 110 nM
Plasma DB829 after the 10th oral dose of DB868, 10 mg/kg × 10 days, read-out: Cmax
  Cmax: 340 nM
Plasma DB829 after the 10th oral dose of DB868, 20 mg/kg × 10 days, read-out: Cmax
  Cmax: 630 nM and 500 nM
